Values quoted from earlier work, collected in US20100055040A1, “Optical Imaging Contrast Agents” (priority 2005, published 2010).

Experiments:
[1] = test system: ulcerated gastric mucosa; details: humans; ulcerated vs unulcerated gastric mucosa
[2] = gastrointestinal tract

absorption by the body [2]: only minimally absorbed
Substance: α-D-glucopyranoside, β-D-fructofuranosyl-, octakis-(hydrogen sulfate), aluminum complex [Sucralfate]
times more sucralfate binds to ulcerated gastric mucosa than to unulcerated mucosa [1]: six to seven
